Data on 24 compounds can be found in US20110224210A1, “NOVEL BIS-AMIDES AS ANTI-MALARIAL AGENTS” (priority 2008, published 2011).

Each structure is given as a SMILES string.

In one assay the test system is P. falciparum K1 (strain resistant to chloroquine and pyrimethamine), erythrocytic stages. The assay is described as follows: Plasmodium falciparum in vitro assay, [3H] hypoxanthine incorporation. As to conditions: Plasmodium falciparum, K1, P. falciparum strain K1; [3H] hypoxanthine incorporation; read-out: IC50 (nM) on K1. It counts as cell-based. As for the experimental part: In Vitro Antimalarial Activity: Plasmodium falciparum In Vitro Assay
In vitro activity against erythrocytic stages of P. falciparum is determined using a [^3H] hypoxanthine incorporation assay. One strain resistant to chloroquine and pyrimethamine (P. falciparum K1) is used in the assays, and all test compounds are compared for activity with the standard drugs chloroquine (sigma C6628) and artemisinin (sigma-36, 159-3). Compounds are diluted in DMSO to 1 mM and added to parasite cultures incubated in RPMI 1640 medium without hypoxanthine, supplemented with HEPES (5.94 g/L), NaHCO3 (2.1 g/L), neomycin (100 U/mL), Albumax (5 g/L) and washed human red cells at 2.5% haematocrit (0.3% parasitaemia). Seven serial doubling dilutions of each compound are prepared in 96-well microtitre plates and incubated in a humidifying atmosphere at 37° C.; 4% CO2, 3% O2, 93% N2.
After 48 h, 50 μl of [3H] hypoxanthine (0.5 μCi) is added to each well of a plate. The plates are incubated for a further 24 h under the same conditions. The plates are then harvested with a Betaplate cell harvester (Wallac) and washed with distilled water. The dried filters are inserted into a plastic foil with 10 mL of scintillation fluid, and counted in a Betaplate liquid scintillation counter. IC50 values are calculated from sigmoidal inhibition curves using Microsoft Excel.
One may read the IC50 as the concentration needed to halve the response being measured. Turning to `Cc1noc(C)c1C=CC(=O)N(Cc1ccc(-c2ccncc2)cc1)[C@@H](Cc1ccccc1)C(=O)N1CCC(N(C)C)CC1` [Example 24, (S)-N-[1-Benzyl-2-(4-dimethylamino-piperidin-1-yl)-2-oxo-ethyl]-3-(3,5-dimethyl-isoxazol-4-yl)-N-(4-pyridin-4-yl-benzyl)-acrylamide], the IC50 was 103 nM.

Regarding `CN(CCN(C)C(=O)[C@H](Cc1ccccc1)N(Cc1ccc(N2CCOCC2)cc1)C(=O)C=Cc1ccc(C(F)(F)F)cc1)Cc1ccc(O)cc1` [Example 256, (S)-N-[1-({2-[(4-Hydroxy-benzyl)-methyl-amino]-ethyl}-methyl-carbamoyl)-2-phenyl-ethyl]-N-(4-morpholin-4-yl-benzyl)-3-(4-trifluoromethyl-phenyl)-acrylamide], the IC50 worked out at 39 nM.

Turning to `COCCN(C)C(=O)[C@H](Cc1ccccc1)N(Cc1ccc(N2CCN(C(C)=O)CC2)cc1)C(=O)C=Cc1sc(C)nc1C` [Example 107, (S)-N-[4-(4-Acetyl-piperazin-1-yl)-benzyl]-3-(2,4-dimethyl-thiazol-5-yl)-N-{1-[(2-methoxy-ethyl)-methyl-carbamoyl]-2-phenyl-ethyl}-acrylamide], the concentration for half-maximal inhibition (IC50) was 70 nM.

Consider `COc1cc(CN(C)CCN(C)C(=O)[C@H](Cc2ccccc2)N(Cc2ccc(N3CCN(C(C)=O)CC3)cc2)C(=O)C=Cc2ccc(C(F)(F)F)cc2)cc(OC)c1` [Example 236, (S)-N-[4-(4-Acetyl-piperazin-1-yl)-benzyl]-N-[1-({2-[(3,5-dimethoxy-benzyl)-methyl-amino]-ethyl}-methyl-carbamoyl)-2-phenyl-ethyl]-3-(4-trifluoromethyl-phenyl)-acrylamide], for which the concentration for half-maximal inhibition (IC50) worked out at 68 nM.

In the case of `COCCN(C)C(=O)[C@H](Cc1ccccc1)N(Cc1ccc(N2CCN(C(C)=O)CC2)cc1)C(=O)C=Cc1ccn(C)n1` [Example 103, (S)-N-[4-(4-Acetyl-piperazin-1-yl)-benzyl]-N-{1-[(2-methoxy-ethyl)-methyl-carbamoyl]-2-phenyl-ethyl}-3-(1-methyl-1H-pyrazol-3-yl)-acrylamide], the concentration for half-maximal inhibition (IC50) was 438 nM.

For `CN(CCOCc1ccc2c(c1)nnn2C)C(=O)[C@H](Cc1ccccc1)N(Cc1ccc(N2CCOCC2)cc1)C(=O)C=Cc1ccc(C(F)(F)F)cc1` [Example 202, (S)-N-(1-{Methyl-[2-(1-methyl-1H-benzotriazol-5-ylmethoxy)-ethyl]-carbamoyl}-2-phenyl-ethyl)-N-(4-morpholin-4-yl-benzyl)-3-(4-trifluoromethyl-phenyl)-acrylamide], the IC50 came to 14 nM.

Take `CN(C)[C@H]1CCN(C(=O)[C@H](Cc2ccccc2)N(Cc2ccc(-c3ccccn3)cc2)C(=O)C=Cc2ccc(C(F)(F)F)nc2)C1` [Example 56, N-[(S)-1-Benzyl-2-((S)-3-dimethylamino-pyrrolidin-1-yl)-2-oxo-ethyl]-N-(4-pyridin-2-yl-benzyl)-3-(6-trifluoromethyl-pyridin-3-yl)-acrylamide]: the concentration for half-maximal inhibition (IC50) was determined as 58 nM.

With `C[C@@H]1CC[C@H]2[C@@H](C)C(=O)O[C@@H]3O[C@@]4(C)CC[C@@H]1[C@]32OO4` [Artemisinin], the half-inhibitory concentration (IC50) was determined as 3 nM.

For `CC(=O)N1CCN(c2ccc(CN(C(=O)C=Cc3ccc(C(F)(F)F)cc3)[C@@H](Cc3ccccc3)C(=O)N(C)CCN(C)Cc3ccc(C)c(F)c3F)cc2)CC1` [Example 251, (S)-N-[4-(4-Acetyl-piperazin-1-yl)-benzyl]-N-[1-({2-[(2,3-difluoro-4-methyl-benzyl)-methyl-amino]-ethyl}-methyl-carbamoyl)-2-phenyl-ethyl]-3-(4-trifluoromethyl-phenyl)-acrylamide], the IC50 stood at 53 nM.

On to `CN(CCOCc1ccc(OC(F)F)cc1)C(=O)[C@H](Cc1ccccc1)N(Cc1ccc(N2CCOCC2)cc1)C(=O)C=Cc1ccc(C(F)(F)F)cc1` [Example 201, (S)-N-(1-{[2-(4-Difluoromethoxy-benzyloxy)-ethyl]-methyl-carbamoyl}-2-phenyl-ethyl)-N-(4-morpholin-4-yl-benzyl)-3-(4-trifluoromethyl-phenyl)-acrylamide], for which the IC50 turned out to be 32 nM.

For the compound `CC(=O)N1CCN(c2ccc(CN(C(=O)C=Cc3ccc(C(F)(F)F)nc3)[C@@H](Cc3ccccc3)C(=O)N(C)CCOCCOCc3ccccc3)cc2)CC1` [Example 216, (S)-N-[4-(4-Acetyl-piperazin-1-yl)-benzyl]-N-(1-{[2-(2-benzyloxy-ethoxy)-ethyl]-methyl-carbamoyl}-2-phenyl-ethyl)-3-(6-trifluoromethyl-pyridin-3-yl)-acrylamide], the IC50 is 94 nM.

As to `CC(=O)N1CCN(c2ccc(CN(C(=O)C=Cc3ccc(C(F)(F)F)cc3)[C@@H](Cc3ccccc3)C(=O)N(C)CCN(C)Cc3ccc4c(c3)OCCN4C)cc2)CC1` [Example 245, (S)-N-[4-(4-Acetyl-piperazin-1-yl)-benzyl]-N-[1-(methyl-{2-[methyl-(4-methyl-3,4-dihydro-2H-benzo[1,4]oxazin-7-ylmethyl)-amino]-ethyl}-carbamoyl)-2-phenyl-ethyl]-3-(4-trifluoromethyl-phenyl)-acrylamide], the concentration for half-maximal inhibition (IC50) came out at 87 nM.

`CN(CCN(C)C(=O)[C@H](Cc1ccccc1)N(Cc1ccc(N2CCOCC2)cc1)C(=O)C=Cc1ccc(C(F)(F)F)cc1)Cc1ccc2c(c1)OCO2` [Example 266, (S)-N-(1-{[2-(Benzo[1,3]dioxol-5-ylmethyl-methyl-amino)-ethyl]-methyl-carbamoyl}-2-phenyl-ethyl)-N-(4-morpholin-4-yl-benzyl)-3-(4-trifluoromethyl-phenyl)-acrylamide]: the concentration for half-maximal inhibition (IC50) was found to be 58 nM.

On to `Cc1ccccc1CN(C)CCN(C)C(=O)[C@H](Cc1ccccc1)N(Cc1ccc(-c2ccccn2)cc1)C(=O)C=Cc1ccc(C(F)(F)F)cc1` [Example 233, (S)-N-[1-(Methyl-{2-[methyl-(2-methyl-benzyl)-amino]-ethyl}-carbamoyl)-2-phenyl-ethyl]-N-(4-pyridin-2-yl-benzyl)-3-(4-trifluoromethyl-phenyl)-acrylamide], for which the IC50 amounted to 53 nM.

Take `CCCCN(CCCC)CCNC(=O)[C@H](Cc1ccccc1)N(Cc1ccc(-c2ccccn2)cc1)C(=O)C=Cc1ccc(C(F)(F)F)cc1` [Example 150]: the concentration for half-maximal inhibition (IC50) stood at 319 nM.

Take `COCCN(C)C(=O)[C@H](Cc1ccccc1)N(Cc1ccc(N2CCN(C(C)=O)CC2)cc1)C(=O)C=Cc1cnc(C)n1C` [Example 106, (S)-N-[4-(4-Acetyl-piperazin-1-yl)-benzyl]-3-(2,3-dimethyl-3H-imidazol-4-yl)-N-{1-[(2-methoxy-ethyl)-methyl-carbamoyl]-2-phenyl-ethyl}-acrylamide]: the concentration for half-maximal inhibition (IC50) came to 470 nM.

Turning to `Cc1noc(C)c1C=CC(=O)N(Cc1ccc(N2CCOCC2)cc1)[C@@H](Cc1ccccc1)C(=O)N1CCC(N(C)C)CC1` [Example 3, (S)-N-[1-Benzyl-2-(4-dimethylamino-piperidin-1-yl)-2-oxo-ethyl]-3-(3,5-dimethyl-isoxazol-4-yl)-N-(4-morpholin-4-yl-benzyl)-acrylamide], the IC50 came to 436 nM.

For the compound `CN(C)C1CCN(C(=O)C(Cc2ccnn2C)N(Cc2ccc(-c3ccncc3)cc2)C(=O)C=Cc2ccc(C(F)(F)F)cc2)CC1` (racemic) [Example 141], the IC50 stood at 339 nM.

As for `CN(C(=O)[C@H](Cc1ccccc1)N(Cc1ccc(-c2ccccn2)cc1)C(=O)C=Cc1ccc(C(F)(F)F)cc1)[C@H]1CCN(Cc2ccccc2)C1` [Example 172, N-{1-[((S)-1-Benzyl-pyrrolidin-3-yl)-methyl-carbamoyl]-(S)-2-phenyl-ethyl}-N-(4-pyridin-2-yl-benzyl)-3-(4-trifluoromethyl-phenyl)-acrylamide], the IC50 worked out at 89 nM.

Take `CN(C(=O)[C@H](Cc1ccccc1)N(Cc1ccc(-c2ccccn2)cc1)C(=O)C=Cc1ccc(C(F)(F)F)cc1)[C@@H]1CCN(Cc2ccccc2)C1` [Example 173, N-{1-[((R)-1-Benzyl-pyrrolidin-3-yl)-methyl-carbamoyl]-(S)-2-phenyl-ethyl}-N-(4-pyridin-2-yl-benzyl)-3-(4-trifluoromethyl-phenyl)-acrylamide]: the concentration for half-maximal inhibition (IC50) was determined as 52 nM.

As to `CC(=O)N1CCN(c2ccc(CN(C(=O)C=Cc3ccc(C(F)(F)F)cc3)[C@@H](Cc3ccccc3)C(=O)N(C)CCN(C)Cc3ccc(OC(C)C)cc3)cc2)CC1` [Example 244, (S)-N-[4-(4-Acetyl-piperazin-1-yl)-benzyl]-N-[1-({2-[(4-isopropoxy-benzyl)-methyl-amino]-ethyl}-methyl-carbamoyl)-2-phenyl-ethyl]-3-(4-trifluoromethyl-phenyl)-acrylamide], the IC50 turned out to be 19 nM.

Take `COc1ccc(CN(C)CCN(C)C(=O)[C@H](Cc2ccccc2)N(Cc2ccc(N3CCOCC3)cc2)C(=O)C=Cc2ccc(C(F)(F)F)cc2)cn1` [Example 264, (S)-N-[1-({2-[(6-Methoxy-pyridin-3-ylmethyl)-methyl-amino]-ethyl}-methyl-carbamoyl)-2-phenyl-ethyl]-N-(4-morpholin-4-yl-benzyl)-3-(4-trifluoromethyl-phenyl)-acrylamide]: the IC50 turned out to be 39 nM.

Regarding `Cc1nc(C=CC(=O)N(Cc2ccc(-c3ccncc3)cc2)[C@@H](Cc2ccccc2)C(=O)N2CCC(N(C)C)CC2)cs1` [Example 23, (S)-N-[1-Benzyl-2-(4-dimethylamino-piperidin-1-yl)-2-oxo-ethyl]-3-(2-methyl-thiazol-4-yl)-N-(4-pyridin-4-yl-benzyl)-acrylamide], the IC50 came out at 141 nM.

The same assay, now with this note: Plasmodium falciparum, K1, read-out: IC50 (nM) on K1.
On to `CCN(CC)CCCC(C)Nc1ccnc2cc(Cl)ccc12` (stereo not drawn) [Chloroquine], for which the IC50 was found to be 194 nM.
